Reference: patent US20230390297A1, “USE OF NUCLEOTIDE SYNTHESIS INHIBITORS FOR TARGETED THERAPY IN MLL3/4 COMPASS MUTANT CANCER” (priority 2022, published 2023)

How the values were obtained:
HT55 (MLL4 WT) xenograft = experiment: HT55 subcutaneous xenograft in nude mice; assay type: in vivo
Method: FIG. 20. Lometrexol application in MLL4 mutant tumors in the xenograft mouse models. (A-D) Tumor development after inoculation of 4×10^6 of HT55 cells into the nude mice. Mice with HT55 subcutaneous (sc) tumor were either treated with vehicle (DMSO, n=9) or LTX (15 mg/kg, n=9) daily for 7 days. (A) Growth plots for sc tumors in each treatment group were shown. Tumor volumes (mm3) show mean and upper SD. (B) Dot plot representation of sc tumor volume in mice at day 18 post-tumor cell injection. […] (C) Photographs of nude mice (upper) and sc tumor taken from these mice (lower) in which HT55 cells were inoculated into the right flank. (D) Animal survival at the indicated days after inoculation. Log-rank test was used for comparisons between DMSO and LTX treatment. (E-H) Tumor development after inoculation of 4×10^6 of HCT116 cells into the nude mice. […]
Six-week-old female athymic mice (nu/nu genotype, BALB/c background) were purchased from Envigo (Indianapolis, IN, USA) and housed under aseptic conditions. […] The tumor sizes were measured on alternate days and the mice were euthanized when the tumor size reached 1000 mm^3. […]
(§1) For in vivo study, the Kaplan-Meier estimator and Prism software were used to generate and analyze survival plots. Differences between survival plots were calculated using a log-rank test. […]

[1] = test system: HCT116 sc xenografts (MLL4 mutant); experiment: HCT116 subcutaneous xenograft in nude mice; assay type: in vivo
Method: FIG. 6. Inhibition of de novo purine synthesis by lometrexol inhibits MLL4 mutant tumor growth. Tumor development after inoculation of 4×10^6 of HCT116 cells into the nude mice. Mice with HCT116 subcutaneous (sc) tumor were either treated with vehicle (DMSO, n=9) or LTX (25 mg/kg, n=9) daily for 7 days. (A) Growth plots for sc tumors in each treatment group were shown. Tumor volumes (mm3) show mean and upper SD. (B) Dot plot representation of sc tumor volume in mice at day 12 post-tumor cell injection. Unpaired t-test values for comparisons between DMSO and LTX treatment: ****, P<0.0001. (C) Photographs of nude mice (left) and sc tumor taken from these mice (right) in which HCT116 cells were inoculated into the right flank. (D) Animal survival at the indicated days after inoculation. Log-rank test was used for comparisons between DMSO and LTX treatment: ****, P<0.0001. (E) H&E staining and immunohistochemistry showing the proliferation and apoptosis in tumors with Ki-67 and TUNEL staining. The signals for Ki-67 and TUNEL are quantified and shown in the bar plots on the right.
FIG. 20. Lometrexol application in MLL4 mutant tumors in the xenograft mouse models. (A-D) Tumor development after inoculation of 4×10^6 of HT55 cells into the nude mice. Mice with HT55 subcutaneous (sc) tumor were either treated with vehicle (DMSO, n=9) or LTX (15 mg/kg, n=9) daily for 7 days. (A) Growth plots for sc tumors in each treatment group were shown. Tumor volumes (mm3) show mean and upper SD. (B) Dot plot representation of sc tumor volume in mice at day 18 post-tumor cell injection. […] (C) Photographs of nude mice (upper) and sc tumor taken from these mice (lower) in which HT55 cells were inoculated into the right flank. (D) Animal survival at the indicated days after inoculation. Log-rank test was used for comparisons between DMSO and LTX treatment. (E-H) Tumor development after inoculation of 4×10^6 of HCT116 cells into the nude mice. Mice with HCT116 subcutaneous (sc) tumor were either treated with vehicle (DMSO, n=9) or LTX (15 mg/kg, n=9) daily for 7 days. (E) Growth plots for sc tumors in each treatment group were shown. Tumor volumes (mm3) show mean and upper SD. (F) Dot plot representation of sc tumor volume in mice at day 12 post-tumor cell injection. Unpaired t-test values for comparisons between DMSO and LTX treatment: ***, P<0.001. (G) Photographs of nude mice (upper) and sc tumor taken from these mice (lower) in which HCT116 cells were inoculated into the right flank. (H) Animal survival at the indicated days after inoculation. Log-rank test was used for comparisons between DMSO and LTX treatment: ***, P<0.001.
Six-week-old female athymic mice (nu/nu genotype, BALB/c background) were purchased from Envigo (Indianapolis, IN, USA) and housed under aseptic conditions. HT55 or HCT116 cells were implanted into the flank of athymic mice as previously described (65). Briefly, 4×10^6 cells, in 0.4 ml of cell culture media with matrigel (BD Bioscience) at 1:1 ratio, were injected in the right flank of mice under anesthetization by isoflurane. […] The tumor sizes were measured on alternate days and the mice were euthanized when the tumor size reached 1000 mm^3. […]
as §1

[2] = LTX 25 mg/kg daily for 7 days vs DMSO

With `Nc1nc2c(c(=O)[nH]1)C[C@@H](CCc1ccc(C(=O)N[C@@H](CCC(=O)O)C(=O)O)cc1)CN2` [lometrexol, (2S)-2-[[4-[2-[(6R)-2-amino-4-oxo-5,6,7,8-tetrahydro-3H-pyrido[2,3-d]pyrimidin-6-yl]ethyl]benzoyl]amino]pentanedioic acid] the “sc tumor volume at day 18 post-tumor cell injection, DMSO vs LTX (unpaired t-test)” value (HT55 (MLL4 WT) xenograft; LTX 15 mg/kg daily for 7 days) was “not statistically significant”, the tumor growth (HT55 (MLL4 WT) xenograft; LTX 15 mg/kg daily for 7 days vs DMSO) was “almost completely resistant to LTX” and the “tumor growth at lower dose” value ([1]; LTX 15 mg/kg daily for 7 days vs DMSO, tumor volume day 12 P<0.001, survival P<0.001) was “maintained the sensitivity to LTX at a lower dose”. The “apoptosis in tumors (TUNEL)” value [1, 2] was “enhanced apoptosis”, the “cell proliferation in tumors (Ki-67)” value [1, 2] was “significantly decreased” and the “subcutaneous tumor growth (tumor volume)” value ([1]; LTX 25 mg/kg intraperitoneally daily for 7 days vs DMSO, P<0.0001) was “significantly inhibited the subcutaneous (sc) tumor growth”. For the same compound, the “survival of recipient mice” value ([1]; LTX 25 mg/kg intraperitoneally daily for 7 days vs DMSO, log-rank P<0.0001) was “extend the survival of recipient mice”.
